Data published in patent US9790215B2 (FLATLEY DISCOVERY LAB, LLC, priority 2013, dated 2017).

These compounds were tested against T1, human ΔF508-CFTR (Homo sapiens, UniProt P13569, DEL508-508) (assay: CFTR-YFP High Throughput Assay (YFP halide flux in FRT cells)). Conditions: FRT cells expressing human ΔF508-CFTR and YFP; Emax normalized to the positive control.
T1 construct: expressed in transfected cells
Type: cell-based
Experimental: Assays for Detecting and Measuring the Effect of Compounds on dF508-CFTR Channels CFRT-YFP High Throughput Assay:
The following protocol is designed to selectively screen small molecule compounds for F508del CFTR corrector activities in the HTS YFP flux assay. In this protocol, the cells are incubated with testing compounds for 24 hours, washed with PBS, stimulated with forskolin and a standard potentiator, and read on a 384-well HTS plate reader, such as the Hamamatsu FDDD-6000.
(§1) YFP fluorescence intensity is acquired at high speed before and after iodide buffer is injected to the assay cells. Iodide enters the cells via active CFTR channels in the plasma membrane, and quenches the YFP fluorescence. The rate of fluorescence quenching is proportionally related to the total CFTR activities in the cell membrane. dF508-CFTR corrector accelerates YFP quenching by increasing the number of CFTR molecules in the testing cell plasma membrane.
This method was initially developed for bench top plate readers (Galietta et al., 2001), and was adapted to the HTS format (Sui et al. Assay Drug Dev. Technol. 2010).
Fisher Rat Thyroid (FRT) cells stably expressing both human AF508-CFTR and a halide-sensitive yellow fluorescent protein (YFP—H148Q/1152L 25, 22) (Galietta et al., Am. J. Physiol Cell Physiol 281(5), C1734, 2001) were cultured on plastic surface in Coon's modified Ham's F12 medium supplemented with FBS 10%, L-glutamine 2 mM, penicillin 100 U/mL, and streptomycin 100 μg/mL. G418 (0.75-1.0 mg/mL) and zeocin (3.2 ug/mL) were used for selection of FRT cells expressing ΔF508-CFTR and YFP. For primary screening, FRT cells were plated into 384-well black wall, transparent bottom microtiter plates (Costar; Corning Inc.) at a cell density of 20,000-40,000 per well. Test compound was applied to the cells at varying concentrations ranging from […] in either a 2-fold or 3-fold dilution series. Cells were incubated in a cell culture incubator at 37° C. with 5% CO2 for 24-26 h. Assay plates were washed with DPBS media (Thermo, cat# SH30028.02) to remove unbound cells and compound. Stimulation media (25 μL) containing 20 μM Forskolin & 30 μM P3 [6-(Ethyl-phenyl-sulfonyl)-4-oxo-1,4-dihydro-quinoline-3-carboxylic acid 2-methoxy-benzylamide] in Hams F-12 coon's modified media was added to the plate wells and incubated at room temperature for 60-120 min. 25 μL of HEPES-PBS-I buffer (10 mM HEPES, 1 mM MgCl2, 3 mM KCl, 1 mM CaCl2, 150 mM NaI) was then added and fluorescence quench curves (Excitation 500 nm/Emission 540 nm; exposure 136 ms) were immediately recorded on an FDSS-6000 plate reader (Hamamatsu). Quench rates were derived from least squares fitting of the data as described by Sui et al., (2010).
The following protocol is designed to selectively screen small molecule compounds for F508del CFTR potentiator activities in the HTS YFP flux assay. In this protocol, the cells are incubated at 27 C for 24 hours with homogeneously boosted dF508-CFTR expression in the cell membrane by the low temperature, washed with PBS, stimulated with forskolin, and read on a 384-well HTS plate reader, such as the Hamamatsu FDDD-6000.
as §1, with “dF508del-CFTR potentiators accelerate” for “dF508-CFTR corrector accelerates”, “increasing” for “increasing the number of”, “activities” for “molecules”
Fisher Rat Thyroid (FRT) cells stably expressing both human ΔF508-CFTR and a halide-sensitive yellow fluorescent protein (YFP-H148Q/I152L 25, 22) (Galietta et al., Am. J. Physiol Cell Physiol 281(5), C1734, 2001) were cultured on plastic surface in Coon's modified Ham's F12 medium supplemented with FBS 10%, L-glutamine 2 mM, penicillin 100 U/mL, and streptomycin 100 μg/mL. […]

T1 sequence (P13569 with tags, fused parts or gaps DEL508-508): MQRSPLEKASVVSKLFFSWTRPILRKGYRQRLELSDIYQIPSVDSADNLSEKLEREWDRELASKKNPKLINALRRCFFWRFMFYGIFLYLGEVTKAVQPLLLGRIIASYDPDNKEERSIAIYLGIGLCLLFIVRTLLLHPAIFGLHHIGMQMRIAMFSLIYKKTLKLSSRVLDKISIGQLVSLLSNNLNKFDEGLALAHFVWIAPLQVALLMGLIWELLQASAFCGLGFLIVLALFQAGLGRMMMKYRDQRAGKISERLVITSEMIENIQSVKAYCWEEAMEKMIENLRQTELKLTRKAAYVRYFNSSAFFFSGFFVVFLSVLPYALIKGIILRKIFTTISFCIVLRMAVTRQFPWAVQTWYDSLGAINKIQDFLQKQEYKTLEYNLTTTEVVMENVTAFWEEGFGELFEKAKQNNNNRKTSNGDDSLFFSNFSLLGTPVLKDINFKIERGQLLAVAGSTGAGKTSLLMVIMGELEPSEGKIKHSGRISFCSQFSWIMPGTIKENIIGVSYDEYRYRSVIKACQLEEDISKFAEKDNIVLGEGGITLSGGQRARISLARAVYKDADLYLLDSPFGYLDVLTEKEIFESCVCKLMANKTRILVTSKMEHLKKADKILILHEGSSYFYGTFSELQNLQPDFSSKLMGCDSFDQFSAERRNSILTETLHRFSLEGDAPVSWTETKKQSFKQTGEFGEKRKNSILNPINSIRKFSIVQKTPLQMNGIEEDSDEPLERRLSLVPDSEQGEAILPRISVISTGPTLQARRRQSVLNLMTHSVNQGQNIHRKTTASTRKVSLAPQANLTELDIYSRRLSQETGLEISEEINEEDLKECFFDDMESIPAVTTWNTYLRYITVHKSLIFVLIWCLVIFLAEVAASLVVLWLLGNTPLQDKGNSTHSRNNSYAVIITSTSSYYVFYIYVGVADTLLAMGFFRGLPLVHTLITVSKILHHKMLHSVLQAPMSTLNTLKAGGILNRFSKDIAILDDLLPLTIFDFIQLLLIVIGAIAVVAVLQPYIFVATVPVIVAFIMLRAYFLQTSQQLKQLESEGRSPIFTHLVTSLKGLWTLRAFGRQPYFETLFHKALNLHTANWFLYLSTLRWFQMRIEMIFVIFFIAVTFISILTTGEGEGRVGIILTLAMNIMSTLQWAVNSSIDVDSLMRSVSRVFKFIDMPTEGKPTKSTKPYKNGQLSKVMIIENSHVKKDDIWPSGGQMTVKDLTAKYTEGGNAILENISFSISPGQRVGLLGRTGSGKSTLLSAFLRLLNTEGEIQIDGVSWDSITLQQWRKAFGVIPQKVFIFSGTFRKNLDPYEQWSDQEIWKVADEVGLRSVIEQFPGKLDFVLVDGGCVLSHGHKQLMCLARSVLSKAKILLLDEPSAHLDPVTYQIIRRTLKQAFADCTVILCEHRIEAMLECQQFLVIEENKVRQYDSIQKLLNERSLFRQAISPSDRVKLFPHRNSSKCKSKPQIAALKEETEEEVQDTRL

| % Efficacy (Emax normalized to the positive control) | Compound |
| --- | --- |
| ++ (a range of 80%-30%) | 2-(4-(3-aminophenyl)-1-oxophthalazin-2(1H)-yl)-N-ethyl-N-(4-ethylphenyl)acetamide [Example 7] |
| ++ (a range of 80%-30%) | 2-(4-(3-cyanophenyl)-1-oxophthalazin-2(1H)-yl)-N-(2,2-difluorobenzo[d][1,3]dioxol-5-yl)-N-ethylacetamide [Example 20] |

| Compound | % Efficacy (Emax normalized to the positive control) |
| --- | --- |
| 4-(3-(2-((2,2-difluorobenzo[d][1,3]dioxol-5-yl)(ethyl)amino)-2-oxoethyl)-4-oxo-3,4-dihydrophthalazin-1-yl)benzoic acid [Example 19] | +++ (EMAX > 80%) |

Same assay, conditions: FRT cells expressing human ΔF508-CFTR and YFP; forskolin stimulated

| Compound | EC50 [µM] |
| --- | --- |
| COc1ccc2c(-c3ccc(C(N)=O)cc3)nn(CC(=O)N(C)c3ccc4c(c3)OC(F)(F)O4)c(=O)c2c1 [Example 76, 4-(3-(2-((2,2-difluorobenzo[d][1,3]dioxol-5-yl)(methyl)amino)-2-oxoethyl)-6-methoxy-4-oxo-3,4-dihydrophthalazin-1-yl)benzamide] | < 10 |
| CCc1ccc(N(CC)C(=O)Cn2nc(Cc3cccnc3)c3cccc(F)c3c2=O)cc1 [Example 37, N-ethyl-N-(4-ethylphenyl)-2-(8-fluoro-1-oxo-4-(pyridin-3-ylmethyl)phthalazin-2(1H)-yl)acetamide] | < 10 |
| CCc1ccc(N(CC)C(=O)Cn2nc(C(=O)Nc3cc(Cl)ccc3C(=O)OC)c3ccccc3c2=O)cc1 [Example 84, methyl 4-chloro-2-(3-(2-(ethyl(4-ethylphenyl)amino)-2-oxoethyl)-4-oxo-3,4-dihydrophthalazine-1-carboxamido)benzoate] | < 10 |
| CCN(C(=O)Cn1ncc2c(c1=O)c1ccccc1n2Cc1ccccn1)c1ccc2c(c1)OC(F)(F)O2 [Example 85, N-(2,2-difluorobenzo[d][1,3]dioxol-5-yl)-N-ethyl-2-(1-oxo-5-(pyridin-2-ylmethyl)-1H-pyridazino[4,5-b]indol-2(5H)-yl)acetamide] | 10 to 20 |
| CCN(C(=O)Cn1nc(-c2ccc(S(N)(=O)=O)cc2)c2ccc(OC)cc2c1=O)c1ccc(OC(F)F)cc1 [Example 66, N-(4-(difluoromethoxy)phenyl)-N-ethyl-2-(7-methoxy-1-oxo-4-(4-sulfamoylphenyl)phthalazin-2(1H)-yl)acetamide] | > 20 |
| 2-(4-(3-aminophenyl)-1-oxophthalazin-2(1H)-yl)-N-ethyl-N-(4-ethylphenyl)acetamide [Example 7] | > 20 |
| CCOc1cccc2c(=O)n(CC(=O)N(CC)c3ccc4c(c3)OC(F)(F)O4)nc(Cc3cccnc3)c12 [Example 58, N-(2,2-difluorobenzo[d][1,3]dioxol-5-yl)-N-ethyl-2-(5-ethoxy-1-oxo-4-(pyridin-3-ylmethyl)phthalazin-2(1H)-yl)acetamide] | 10 to 20 |
| 4-(3-(2-((2,2-difluorobenzo[d][1,3]dioxol-5-yl)(ethyl)amino)-2-oxoethyl)-4-oxo-3,4-dihydrophthalazin-1-yl)benzoic acid [Example 19] | 10 to 20 |
| CCN(C(=O)Cn1ncc2c(c1=O)c1ccccc1n2Cc1ccc(OC)cc1)c1ccc2c(c1)OC(F)(F)O2 [Example 90, N-(2,2-difluorobenzo[d][1,3]dioxol-5-yl)-N-ethyl-2-(5-(4-methoxy-benzyl)-1-oxo-1H-pyridazino[4,5-b]indol-2(5H)-yl)acetamide] | 10 to 20 |
| Cc1ccc(-n2nc(C(=O)N(c3ccccc3)C3CC3)c3c4ccccc4n(C)c3c2=O)cc1 [Example 104, N-cyclopropyl-5-methyl-4-oxo-N-phenyl-3-(p-tolyl)-4,5-dihydro-3H-pyridazino[4,5-b]indole-1-carboxamide] | < 10 |
| Cc1ccc(-n2nc(C(=O)N(c3ccccc3)C(C)C)c3c4ccccc4n(C)c3c2=O)cc1 [Example 103, N-isopropyl-5-methyl-4-oxo-N-phenyl-3-(p-tolyl)-4,5-dihydro-3H-pyridazino[4,5-b]indole-1-carboxamide] | < 10 |
| COc1ccc2c(-c3ccc(S(N)(=O)=O)cc3)nn(CC(=O)N(C)c3ccc4c(c3)OC(F)(F)O4)c(=O)c2c1 [Example 64, N-(2,2-difluorobenzo[d][1,3]dioxol-5-yl)-2-(7-methoxy-1-oxo-4-(4-sulfamoylphenyl)phthalazin-2(1H)-yl)-N-methylacetamide] | < 10 |
| CCc1ccc(N(CC)C(=O)Cn2nc(Cc3cccnc3)c3cc(Cl)ccc3c2=O)cc1 [Example 40, 2-(6-chloro-1-oxo-4-(pyridin-3-ylmethyl)phthalazin-2(1H)-yl)-N-ethyl-N-(4-ethylphenyl)acetamide] | < 10 |
| CCc1ccc(N(CC)C(=O)Cn2nc(Cc3cccnc3)c3ccc(Cl)cc3c2=O)cc1 [Example 39, 2-(7-chloro-1-oxo-4-(pyridin-3-ylmethyl)phthalazin-2(1H)-yl)-N-ethyl-N-(4-ethylphenyl)acetamide] | < 10 |
| CCN(C(=O)Cn1nc(-c2ccc(S(N)(=O)=O)cc2)c2ccc(OC)cc2c1=O)c1ccc2c(c1)OC(F)(F)O2 [Example 65, N-(2,2-difluorobenzo[d][1,3]dioxol-5-yl)-N-ethyl-2-(7-methoxy-1-oxo-4-(4-sulfamoylphenyl)phthalazin-2(1H)-yl)acetamide] | < 10 |
| CCN(C(=O)Cn1nc(C(=O)Nc2ccccn2)c2ccccc2c1=O)c1ccc2c(c1)OC(F)(F)O2 [Example 80, 3-(2-((2,2-difluorobenzo[d][1,3]dioxol-5-yl)(ethyl)amino)-2-oxoethyl)-4-oxo-N-(pyridin-2-yl)-3,4-dihydrophthalazine-1-carboxamide] | > 20 |

More lines, now with the values ahead:

| EC50 [µM] | Compound |
| --- | --- |
| < 10 | CCN(C(=O)c1nn(-c2ccc(OC)cc2)c(=O)c2c1c1ccccc1n2C)c1ccccc1 [Example 130, N-ethyl-3-(4-methoxyphenyl)-5-methyl-4-oxo-N-phenyl-4,5-dihydro-3H-pyridazino[4,5-b]indole-1-carboxamide] |
| < 10 | CCN(C(=O)c1nn(-c2ccc(C)cc2)c(=O)c2[nH]c3ccccc3c12)c1cccc(Cl)c1 [Example 148, N-(3-chlorophenyl)-N-ethyl-4-oxo-3-(p-tolyl)-4,5-dihydro-3H-pyridazino[4,5-b]indole-1-carboxamide] |
| > 20 | CCN(C(=O)c1nn(Cc2ccccc2)c(=O)c2c1c1ccccc1n2C)c1ccccc1 [Example 136, 3-benzyl-N-ethyl-5-methyl-4-oxo-N-phenyl-4,5-dihydro-3H-pyridazino[4,5-b]indole-1-carboxamide] |
| > 20 | CCN(C(=O)c1nn(-c2ccc(C)cc2)c(=O)c2c1c1ccccc1n2Cc1ccccn1)c1ccccc1 [Example 153, N-ethyl-4-oxo-N-phenyl-5-(pyridin-2-ylmethyl)-3-(p-tolyl)-4,5-dihydro-3H-pyridazino[4,5-b]indole-1-carboxamide] |
| < 10 | CCN(C(=O)c1nn(-c2cnc3ccccc3c2)c(=O)c2c1c1ccccc1n2C)c1ccccc1 [Example 128, N-ethyl-5-methyl-4-oxo-N-phenyl-3-(quinolin-3-yl)-4,5-dihydro-3H-pyridazino[4,5-b]indole-1-carboxamide] |
| > 20 | 2-(4-(3-cyanophenyl)-1-oxophthalazin-2(1H)-yl)-N-(2,2-difluorobenzo[d][1,3]dioxol-5-yl)-N-ethylacetamide [Example 20] |
| < 10 | CCN(C(=O)c1nn(-c2ccc(Cl)cc2)c(=O)c2c1c1ccccc1n2C)c1ccccc1 [Example 129, 3-(4-chlorophenyl)-N-ethyl-5-methyl-4-oxo-N-phenyl-4,5-dihydro-3H-pyridazino[4,5-b]indole-1-carboxamide] |
| < 10 | CCN(C(=O)c1nn(-c2cccnc2)c(=O)c2c1c1ccccc1n2C)c1ccccc1 [Example 119] |
| < 10 | Cc1ccc(-n2nc(C(=O)N(CC#N)c3ccccc3)c3c4ccccc4n(C)c3c2=O)cc1 [Example 105, N-(cyanomethyl)-5-methyl-4-oxo-N-phenyl-3-(p-tolyl)-4,5-dihydro-3H-pyridazino[4,5-b]indole-1-carboxamide] |
